US11773081B2, “Pharmaceutical composition for preventing or treating wound, comprising indirubin derivative as active ingredient” (CK Regeon Inc., priority 2018, dated 2023)

Tested on: diabetic wound
Assay: Wound healing effect in diabetic wound animal model (Test Example 8)
Type: in vivo, mouse
Method: 3-week-old male C57BL/6N mice (Koatech, South Korea) were used. After accustoming the mice for a week to normal feed, high-fat diet (Product Data—D12492; 60% kcal, hereinafter referred to as HFD) was given for 4 weeks. Then, a diabetes-induced animal model was prepared by intraperitoneally injecting 40 mg/kg streptozocin (Sigma) once daily for a week. The mice were kept in cages maintained at constant temperature (22±2° C.) and relative humidity (40-60%) with light/dark cycles of 12/12 hours.
6 mice of the normal control group and 6 mice per test group of the diabetes-induced animal model of Test Example 7 were prepared. The hair on the back was removed and a 1.5×1.5 cm^2 wound was made on the hair-removed region.
For the normal control group, only 20 μL of an emulsion solution (Kollipore®EL:Tween 80:PEG 400 at a mixing weight ratio of 80:6:14) was applied to the wound site once daily for 14 days. For the negative control group, only 20 μL of the emulsion solution (Kollipore®EL:Tween 80:PEG 400 at a mixing weight ratio of 80:6:14) was applied to the wound site once daily for 14 days. For the test group, 20 μL of A3334 (Example 1) was applied to the wound site once daily for 14 days. Then, the wound site of the animal model was photographed and the wound area was measured on days 0, 1, 3, 7, 10 and 14 (FIG. 10). On day 14, after euthanizing the mouse with carbon dioxide, the wound site tissue was harvested and the histological structure was observed.
A3334 (Example 1) was prepared by preparing an emulsion solution by mixing Kollipore®EL:Tween 80:PEG 400 at a mixing weight ratio of 80:6:14 and then dissolving the A3334 indirubin derivative synthesized in Example 1 to a concentration of 0.5 mM.
The wound closure rate (%) was calculated according to Equation 1. Wound closure rate (%)=[initial wound area on day 0−wound area on measurement day]/[initial wound area on day 0]×100 [Equation 1] […]

SMILES: COc1ccc2c(c1)/C(=C1/Nc3ccccc3/C1=N\O)C(=O)N2 [Example 1, 5-methoxylindirubin-3′-oxime]
- healing of the wound site (wound closure rate) (diabetes-induced C57BL/6N mouse, 1.5×1.5 cm^2 wound, 20 μL of 0.5 mM once daily for 14 days): healing of the wound site was promoted similarly to the normal control group
- re-epithelialization (H&E) (diabetes-induced mouse, 14 days): fast re-epithelialization
- collagen synthesis (Van Gieson's stain, Picrosirius red) (diabetes-induced mouse, vs normal and negative control group): increased collagen synthesis
